Data set [1] has as its system HGC-27 xenograft. The experiment in a line: HGC-27 tumor xenograft model. The class given is in vivo, BALB/c nude mice. As to conditions: p.o., bid, 14 days, HGC-27 xenograft.
Procedure: 4-week-old male BALB/c nude mice weighing 18g–22 g were injected with 100 μL HGC-27 cells (2 × 10^6 cells) to establish an undifferentiated gastric cancer model.
(A) Tumor volumes plotted as mean ± SEM. (B) Mice weight curve during treatment plotted as mean ± SD. (C,D) Tumor weight and size on the final day.
The subject of data set [2] is HGC-27 cells. Briefly: MTT cytotoxicity / anti-proliferation assay. The class given is cell-based, human. To be noted: Homo sapiens, HGC-27, 72 h, HGC-27, MTT, read-out: IC50, cancer cell viability. Here is the method:
Undifferentiated human gastric cancer cell line (HGC-27) was purchased from the China Center for Type Collection (CCTCC, China) and used with 10% Foetal Bovine Serum (FBS, Gemini, Bio-Product, CA, United States), 1% penicillin streptomycin (PS) and 89% 1,640 medium ([…]) for culture. All cells were incubated at 37°C in a constant temperature incubator containing 95% air and 5% CO2.
To evaluate the cytotoxicity of F8 and related organic salts on HGC-27 cells, MTT analysis was performed. HGC-27 cells were digested with trypsin, then cells were spread into 96-well plates at a density of 3,000 cells/well and incubated for 12–16 h. After 12 h, the medium in 96-well plates was replaced with compounds containing 1, 0.5, 0.25, 0.125, 0.062, 0.0312 μM for another 72 h. Three days later, 20 μL MTT solution was added and incubated at 37°C for 4 h. Then 150 μL DMSO solution was added to each well after the fluid was removed, and the absorbance was detected by microplate reader. The compound dissolved in DMSO was added to the cell medium so that the final concentration of DMSO was less than 0.4%.
Infinite proliferation is one of the most prominent features of cancer cells, therefore, we evaluated the anti-proliferation activity of compounds F8 and related organic salts against human gastric carcinoma HGC-27 via MTT assay.

Data set [3] deals with MDA-MB-468. The experiment in a line: MTT cytotoxicity / anti-proliferation assay. The class given is cell-based. To be noted: Homo sapiens, MDA-MB-468, 72 h, MDA-MB-468, MTT, read-out: IC50, cancer cell viability.
Data set [4] deals with SK-Hep-1. Briefly: MTT cytotoxicity / anti-proliferation assay. The class given is cell-based. To be noted: SK-Hep-1, MTT, 72 h; read-out: IC50, cancer cell viability.
The subject of data set [5] is HuH7. The experiment in a line: MTT cytotoxicity / anti-proliferation assay. To be noted: 72 h, read-out: IC50, cancer cell viability. Type of data set: cell-based.
Data set [6] has as its system HCT-116. The experiment in a line: MTT cytotoxicity / anti-proliferation assay. To be noted: Homo sapiens, HCT-116, 72 h, HCT-116, MTT, read-out: IC50, cancer cell viability. The class given is cell-based.
The test system of data set [7] is HCC-1806. The experiment in a line: MTT cytotoxicity / anti-proliferation assay. Type of data set: cell-based. As to conditions: Homo sapiens, HCC1806, 72 h, HCC-1806, MTT, read-out: IC50, cancer cell viability.
Data set [8] concerns MCF-7. Briefly: MTT cytotoxicity / anti-proliferation assay. Type of data set: cell-based. As to conditions: Homo sapiens, MCF7, 72 h, MCF-7, MTT, read-out: IC50, cancer cell viability.
Data set [9] has as its system HCC-1937. The experiment in a line: MTT cytotoxicity / anti-proliferation assay. To be noted: Homo sapiens, HCC1937, 72 h, HCC-1937, MTT, read-out: IC50, cancer cell viability. Type of data set: cell-based.
Data set [10] relates to MDA-MB-231. Briefly: MTT cytotoxicity / anti-proliferation assay. The class given is cell-based. As to conditions: Homo sapiens, MDA-MB-231, 72 h, MDA-MB-231, MTT, read-out: IC50, cancer cell viability.
A short description of data set [11]: Solubility in aqueous solution (pure water, normal saline). The class given is physicochemical.
Data set [12] can be described thus: Pharmacokinetic study. The class given is in vivo, SD rats. As to conditions: SD rats; for Cmax: read-out: Cmax. Here is the method: 7–8-week Male SD rats weighing 180–220 g were allowed for this experiment. The rats were fasted 12 h except for water. The solution was administered to rats by intravenous injection of 10% ethanol +10% solutol as solvent and intragastric injection of 5% castor oil +5% solutol as solvent. The dose concentration was 8 mg/mL for intravenous injection and 10 mg/mL for gavage.
Twelve male SD rats were divided into 4 groups with 3 rats in each group. Group 1 was F8-intravenous injection group, the dose was 20 mg/kg; Group 2 was F8- intragastric administration group, the dose was 100 mg/kg; Group 3 was F8·2HCl-intragastric administration group, the dose was 100 mg/kg. Blank blood was collected before administration, and blood was collected at predetermined time points after administration:
Intravenous injection group: before administration, 2 min, 5 min, 15 min, 30 min, 1 h, 2 h, 4 h, 8 h, 12 h, 24 h. Intragastric administration group: Before administration, 5 min, 15 min, 30 min, 1 h, 2 h, 4 h, 6 h, 8 h, 12 h, 24 h. About 0.5 mL of blood was collected and placed in an EDTA-K2 tube at […]. The plasma was centrifuged and stored at −80°C. The samples were detected by liquid-mass spectrometry analysis system. The chromatographic column used was ODS-C18 (4.6 × 50 mm, 3 µm). The chromatographic conditions were as follows: Mobile phase A is aqueous phase, […] (including 0.1% formic acid); Mobile phase B is organic, 95% acetonitrile (containing 0.1% formic acid). Flow rate of 0.4 mL/min, column temperature: room temperature, according to the drug plasma concentration data, calculated pharmacokinetic parameters using DAS 2.0 software.
After oral administration, drugs need to go through four stages, namely, absorption, distribution, metabolism and excretion. However, the changes in solubility of drugs after salting only affect the absorption stage. Since absorption is accompanied by a dissolution process, the water solubility and dissolution rate of drugs are the main factors that determine their absorption, and then affect their oral bioavailability ([Elder et al., 2013]). Under the stimulation of cell activity and increased solubility, pharmacokinetic experiments were carried out to understand the drug exposure and provide a basis for further druggability of compound F8. In this study, compound F8 and F8·2HCl were administered in two different ways: tail vein injection (20 mg/kg) and gavage (100 mg/kg), and pharmacokinetic parameters were measured in Sprague-Dawley (SD) rats (Figures 3, 4).

The subject of data set [13] is MGC-803. The arrangement: method as in Feng et al., 2022. To be noted: MGC-803, previous work; ref Feng et al., 2022; cited from earlier work.
Data set [14] relates to AGS. The arrangement: method as in Feng et al., 2022. To be noted: previous work, ref Feng et al., 2022; cited from earlier work.
In data set [15] the test system is GES-1. The arrangement: method as in Feng et al., 2022. To be noted: GES-1 normal cells, previous work; ref Feng et al., 2022; cited from earlier work.
Setting [16] is: male, Sprague-Dawley, rat, plasma, iv, 20 mg/kg.
The mark [17] stands for this setting: male, Sprague-Dawley, rat, plasma, oral, 100 mg/kg, 100 mg/kg, route ip (methods: intragastric).

Where two headings read alike, the source gives them in different places.

Take `N#CC1(c2ccc(NC(=O)c3cccnc3NCc3ccncc3)cc2)CCCC1` [Apatinib, apatinib, reference compound]: in data set [1] (37.5 mg/kg), the “tumor growth inhibition (TGI)” value turned out to be 50.0%.
In the case of `O=C(NCc1ccc(NC(=O)c2cc(F)ccc2N2CCCC2)cc1)OCc1cccnc1` [F8], the IC50 in [2] worked out at 0.26 ± 0.03 µM; in data set [3], 1.45 ± 0.12 µM; in data set [4] it was 1.65 ± 0.15 µM; in [5], 2.35 ± 0.29 µM; in data set [6], 4.89 ± 0.35 µM; in data set [7], 21.1 ± 0.74 µM. The IC50 is 43.5 ± 0.36 µM in [8]; 47.05 ± 0.07 µM in [9]; 53.8 ± 0.59 µM in [10]; 10.7 µM in [13]; 23.3 µM in [14]; above 100 µM in data set [15]. Further, in data set [11] (normal saline, compared with pure water), the “solubility in normal saline” value was “not much different from pure water”. Further, the “Solubility in aqueous solution” value in data set [11] (pure water) is recorded as “less than 1 mg/mL”. Moreover, the Tmax in data set [12] (100 mg/kg, route ip (methods: intragastric), 100 mg/kg) is 0.19 h; in data set [12] (male, Sprague-Dawley, rat, plasma, iv, 20 mg/kg, 20 mg/kg, iv, read-out: Tmax), 0.03 h. For the same compound, the peak plasma concentration in data set [12] (oral administration 100 mg/kg, 100 mg/kg) came to 0.4 µg/mL. In addition, the AUC(0-inf) came out at 6990 ng·h/mL in data set [12] (setting [16]) and 1130 ng·h/mL in data set [12] (setting [17]). In addition, the values for the half-life in [12] (setting [16]) and in data set [12] (setting [17]) were 3.09 h and 2.66 h, respectively. The Cmax came out at 12100 ng/mL in data set [12] (male, Sprague-Dawley, rat, plasma, iv, 20 mg/kg, 20 mg/kg, iv) and 400 ng/mL in data set [12] (setting [17]). In addition, the bioavailability in data set [12] (male, Sprague-Dawley, rat, plasma, oral, 100 mg/kg, oral 100 mg/kg vs iv 20 mg/kg, read-out: bioavailability) came out at 3.23%. In data set [12] (male, Sprague-Dawley, rat, plasma, po, 100 mg/kg, area under the concentration-time curve (AUC0-t), oral administration 100 mg/kg, heading: area under the concentration-time curve), this compound yielded an AUC(0-t) of around 1130 ng·h/mL. Besides, in data set [1] (75 mg/kg), the “tumor growth inhibition (TGI)” value was found to be 52.8%.

What is called IC50 is the midpoint of a concentration-inhibition curve. One may read the Tmax as the time from dosing to the highest level. The term AUC(0-inf) denotes total exposure, with the tail of the curve extrapolated. A high value points to more exposure. As a reminder, the half-life is the time in which the quantity being followed falls by half. Read a low half-life as rapid decline. For orientation: Cmax means the highest concentration seen after dosing. As usually defined, the bioavailability is the share of a dose that reaches the circulation, judged against a reference dose that is usually intravenous. Usually AUC(0-t) stands for exposure summed from dosing to a finite time, without extrapolation to infinity. High values mean more exposure, low ones less exposure.

The values are drawn from article PMC10368370, “Development of o-aminobenzamide salt derivatives for improving water solubility and anti-undifferentiated gastric cancer” (Frontiers in Pharmacology, 2023).
